Measured values: PubChem BioAssay (NCI)
Values joined by “and” are separate entries in the source; they are usually repeats but may differ in a detail not shown here. Equal values may be shown once.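 Cells were grown in 96-well plates and exposed to each compound for 48 hours at five concentrations; endpoints were interpolated linearly between bracketing concentrations, or set to the highest concentration if not reached. GI50: concentration for 50% inhibition of growth. TGI: total growth inhibition.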

How the values were obtained:
Assay in all cases: growth of human tumour cells (NCI), 48 h
SNB-19 CNS = system: SNB-19 CNS
SR leukemia = system: SR leukemia
SK-MEL-5 melanoma = system: SK-MEL-5 melanoma
DU-145 prostate = system: DU-145 prostate
HCT-116 colon = system: HCT-116 colon
OVCAR-4 ovarian = system: OVCAR-4 ovarian
MCF7 breast = system: MCF7 breast
MALME-3M melanoma = system: MALME-3M melanoma
UACC-257 melanoma = system: UACC-257 melanoma
UACC-62 melanoma = system: UACC-62 melanoma

Structure (SMILES): CC(=O)N1N=C(c2ccc(Nc3nc(Nc4ccc(F)cc4)nc(Nc4ccc(Cl)cc4)n3)cc2)CC1c1ccc(N(C)C)cc1 (stereo unspecified)
- GI50 (SNB-19 CNS): 6.26 µM
- TGI (SNB-19 CNS): > 56.2 µM
- GI50 (SR leukemia): 2.1 µM
- TGI (SR leukemia): 5.18 µM
- GI50 (SK-MEL-5 melanoma): 6.68 µM
- TGI (SK-MEL-5 melanoma): 19.3 µM
- GI50 (DU-145 prostate): 10.2 µM
- TGI (DU-145 prostate): 39 µM
- GI50 (HCT-116 colon): 2.42 µM
- TGI (HCT-116 colon): 10.1 µM
- GI50 (OVCAR-4 ovarian): 4.41 µM
- TGI (OVCAR-4 ovarian): > 100 µM
- GI50 (MCF7 breast): 3.94 µM
- TGI (MCF7 breast): 26.9 µM
- GI50 (MALME-3M melanoma): 4.78 µM
- TGI (MALME-3M melanoma): 23.8 µM
- GI50 (UACC-257 melanoma): 7.67 µM
- TGI (UACC-257 melanoma): 26.1 µM
- GI50 (UACC-62 melanoma): 2.26 µM
- TGI (UACC-62 melanoma): 7.79 µM

Structure (SMILES): Nc1cc(N)cc(Cc2ccccc2)c1
- TGI (SNB-19 CNS): > 100 µM
- TGI (SR leukemia): > 100 µM
- TGI (SK-MEL-5 melanoma): > 100 µM
- TGI (DU-145 prostate): > 100 µM
- TGI (HCT-116 colon): > 100 µM
- TGI (OVCAR-4 ovarian): > 100 µM
- TGI (MCF7 breast): > 100 µM
- TGI (MALME-3M melanoma): > 100 µM
- TGI (UACC-257 melanoma): > 100 µM

Structure (SMILES): COc1ccccc1Nc1nc2ccccc2c2occc12
- GI50 (SNB-19 CNS): 14.5 µM
- TGI (SNB-19 CNS): > 50 µM
- GI50 (SR leukemia): 9.33 µM
- TGI (SR leukemia): 20.3 µM
- GI50 (SK-MEL-5 melanoma): 12.2 µM
- TGI (SK-MEL-5 melanoma): 27.7 µM
- GI50 (DU-145 prostate): 16.9 µM
- TGI (DU-145 prostate): > 50 µM
- GI50 (HCT-116 colon): 20.8 µM
- TGI (HCT-116 colon): > 50 µM
- GI50 (OVCAR-4 ovarian): 4.13 µM
- TGI (OVCAR-4 ovarian): 19.3 µM
- GI50 (MCF7 breast): 15.9 µM
- TGI (MCF7 breast): > 50 µM
- GI50 (UACC-257 melanoma): 14.3 µM
- TGI (UACC-257 melanoma): 35.7 µM
- GI50 (UACC-62 melanoma): 10.1 µM
- TGI (UACC-62 melanoma): 26.4 µM

Structure (SMILES): CCOC(=O)C(O)Cc1cnc2ccccc2n1 (stereo unspecified)
- TGI (SNB-19 CNS): > 100 µM
- TGI (SR leukemia): > 100 µM
- TGI (SK-MEL-5 melanoma): > 100 µM
- TGI (DU-145 prostate): > 100 µM
- TGI (HCT-116 colon): > 100 µM
- TGI (OVCAR-4 ovarian): > 100 µM
- TGI (MCF7 breast): > 100 µM
- TGI (MALME-3M melanoma): > 100 µM
- TGI (UACC-257 melanoma): > 100 µM
- TGI (UACC-62 melanoma): > 100 µM

Structure (SMILES): CC(=O)OC1CC2(O)C(CCC3(C)C(c4ccc(=O)oc4)CCC32O)C2(C)CCC(OC3OC(CO)C(O)C(O)C3O)C=C12 (stereo unspecified)
- GI50 (SNB-19 CNS): 0.0461 µM
- TGI (SNB-19 CNS): 0.165 µM
- GI50 (SR leukemia): 0.015 µM
- TGI (SR leukemia): 0.0541 µM
- GI50 (SK-MEL-5 melanoma): 0.0196 µM
- TGI (SK-MEL-5 melanoma): 0.0672 µM
- GI50 (DU-145 prostate): 0.0183 µM
- TGI (DU-145 prostate): 0.0594 µM
- GI50 (HCT-116 colon): 0.0111 µM
- TGI (HCT-116 colon): 0.105 µM
- GI50 (OVCAR-4 ovarian): 0.0273 µM
- TGI (OVCAR-4 ovarian): 0.153 µM
- GI50 (MCF7 breast): 0.0183 µM
- TGI (MCF7 breast): 0.167 µM
- GI50 (MALME-3M melanoma): 0.0245 µM
- TGI (MALME-3M melanoma): 0.0593 µM
- GI50 (UACC-257 melanoma): 0.0383 µM
- TGI (UACC-257 melanoma): 0.206 µM
- GI50 (UACC-62 melanoma): 0.03 µM
- TGI (UACC-62 melanoma): 0.101 µM

Structure (SMILES): Clc1ccc(N/N=C(\c2ccccc2)c2ccccn2)nc1
- GI50 (SNB-19 CNS): 0.466 µM
- TGI (SNB-19 CNS): > 100 µM
- GI50 (SR leukemia): 0.0769 µM
- TGI (SR leukemia): 3.5 µM
- GI50 (SK-MEL-5 melanoma): 0.32 µM
- GI50 (DU-145 prostate): 0.243 µM
- TGI (DU-145 prostate): > 100 µM
- GI50 (HCT-116 colon): 0.0313 µM
- TGI (HCT-116 colon): 10.6 µM and 11.1 µM
- GI50 (OVCAR-4 ovarian): 0.0201 µM
- TGI (OVCAR-4 ovarian): > 100 µM and 56.2 µM
- GI50 (MCF7 breast): 0.0302 µM
- TGI (MCF7 breast): > 100 µM
- GI50 (MALME-3M melanoma): 0.0904 µM
- TGI (MALME-3M melanoma): 72.2 µM and 25.7 µM
- GI50 (UACC-257 melanoma): 0.154 µM
- TGI (UACC-257 melanoma): 12 µM and 20.7 µM
- GI50 (UACC-62 melanoma): 0.288 µM
- TGI (UACC-62 melanoma): > 36.6 µM and 15.5 µM

Structure (SMILES): O=C1Nc2ccc(CN3CCOC3=O)cc2/C1=C/c1cc(CN2CCOCC2)c[nH]1
- GI50 (SNB-19 CNS): 98.7 µM
- TGI (SNB-19 CNS): > 100 µM
- GI50 (SR leukemia): 7.43 µM
- TGI (SR leukemia): 73.9 µM
- GI50 (SK-MEL-5 melanoma): 19.5 µM
- TGI (SK-MEL-5 melanoma): 43.5 µM
- GI50 (DU-145 prostate): > 100 µM
- TGI (DU-145 prostate): > 100 µM
- GI50 (HCT-116 colon): 37.2 µM
- TGI (HCT-116 colon): > 100 µM
- GI50 (OVCAR-4 ovarian): 26.6 µM
- TGI (OVCAR-4 ovarian): > 100 µM
- GI50 (MCF7 breast): 24.1 µM
- TGI (MCF7 breast): > 91.9 µM
- GI50 (MALME-3M melanoma): > 71.5 µM
- TGI (MALME-3M melanoma): > 100 µM
- GI50 (UACC-257 melanoma): 52 µM
- TGI (UACC-257 melanoma): > 100 µM
- GI50 (UACC-62 melanoma): 34.4 µM
- TGI (UACC-62 melanoma): > 100 µM
